Molecules are shown by their SMILES. Bounds are passed on as bounds.

This assay can be described thus: Bolus i.v. injection in normal conscious rats: plasma PTH and ionized calcium levels. The format is in vivo, male Sprague-Dawley rats. How it is done: FIG. 1 is a graph which depicts the effect of bolus i.v. injection of the compound of Example 9 on plasma PTH levels in normal rats.
5-Ethyl-3-[2-(2-fluoro-phenyl)-ethyl]-2-(2-hydroxy-phenyl)-6-methyl-3H-pyrimidin-4-one (1 or 3 μmol/kg) or vehicle was administered by intravenous injection over about 15 seconds to normal conscious male Sprague-Dawley rats with chronic indwelling arterial and venous catheters. Arterial blood samples were collected at 30 min and immediately before, and at 1, 5, 10, and 30 min after the start of the injection for measurement of the levels of parathyroid hormone (PTH) and ionized calcium (Ca^2+) in plasma. PTH was measured using a specific rat PTH (1-84) ELISA (Immutopics, San Clemente, Calif.). […] Plasma PTH levels had returned to pre-dose levels by 10 min after the injection (FIG. 1).

With `CCc1c(C)nc(-c2ccccc2O)n(CCc2ccccc2F)c1=O` [Example 9, 5-Ethyl-3-[2-(2-fluoro-phenyl)-ethyl]-2-(2-hydroxy-phenyl)-6-methyl-3H-pyrimidin-4-one], the “effect on plasma PTH levels” value (1 or 3 μmol/kg i.v. over about 15 seconds, normal conscious male Sprague-Dawley rats, rat PTH (1-84) ELISA, FIG. 1) was “rapid, but transient dose-related increase”. Moreover, for the setting “1 or 3 μmol/kg i.v., rats”, the “time after injection at which plasma PTH levels were maximal” value stood at 1 min and the “time after injection by which plasma PTH levels had returned to pre-dose levels” value was at most 10 min. Under “1 or 3 μmol/kg i.v., rats, samples up to 30 min after injection (not shown)”, the “changes in plasma Ca2+ levels” value is “no consistent changes”.
